Experimental data: ChEMBL document CHEMBL1201862, “PubChem BioAssay data set” (2004)
Blank lines part the entries; values can stand above or below the molecule they belong to. The source made the active and inactive calls.

How the values were obtained:
Type in all cases: functional
[1] = molecular target: Integrin alpha-4 (Homo sapiens, UniProt P13612); test: VLA-4 integrin allosteric ligands, SAR follow-up, cell-based, LIBS antibody binding, flow cytometry (AID 488791)
[2] = molecular target: Sphingosine 1-phosphate receptor 4 (Homo sapiens, UniProt O95977); test: Late-stage fluorescence dose response cell-based assay to identify agonists of the Sphingosine 1-Phosphate Receptor 4 (S1P4): purchased compounds EC50. [Related pubchem assays (depositor defined):AID1509, AID1523, AID1563, AID1686, AID1701, AID1801]
Sequence of Sphingosine 1-phosphate receptor 4 (O95977 whole entry): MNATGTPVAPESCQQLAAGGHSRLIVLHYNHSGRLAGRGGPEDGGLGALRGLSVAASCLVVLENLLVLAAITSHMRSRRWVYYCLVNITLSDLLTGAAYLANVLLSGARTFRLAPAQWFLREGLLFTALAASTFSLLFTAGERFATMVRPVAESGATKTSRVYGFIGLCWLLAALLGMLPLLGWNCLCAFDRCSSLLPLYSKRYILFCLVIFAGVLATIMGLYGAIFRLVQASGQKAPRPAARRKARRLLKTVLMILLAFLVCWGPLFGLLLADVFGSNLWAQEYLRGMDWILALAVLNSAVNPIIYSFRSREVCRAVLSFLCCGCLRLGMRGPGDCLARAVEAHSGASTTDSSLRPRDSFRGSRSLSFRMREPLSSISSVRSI

[3] = molecular target: Dual specificity protein phosphatase 3 (Homo sapiens, UniProt P51452); test: SAR VHR1 Fluorescent Assay for In Vitro dose response studies Set 2. [Related pubchem assays (depositor defined):AID1654, AID1661, AID1878]
Sequence of Dual specificity protein phosphatase 3 (P51452 whole entry): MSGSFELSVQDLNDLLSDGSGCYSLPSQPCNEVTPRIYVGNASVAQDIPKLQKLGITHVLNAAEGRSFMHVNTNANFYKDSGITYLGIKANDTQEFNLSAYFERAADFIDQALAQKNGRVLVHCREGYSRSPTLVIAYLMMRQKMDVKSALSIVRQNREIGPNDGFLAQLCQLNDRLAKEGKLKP

[4] = molecular target: T1, Dual specificity protein phosphatase 6 (Rattus norvegicus, UniProt Q64346);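 also: confirmatory in vitro dose-response testing of MKP-3 inhibition; recombinant His-tagged MKP-3 made in E. coli BL21 with OMFP substrate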
T1 sequence (Q64346 whole entry): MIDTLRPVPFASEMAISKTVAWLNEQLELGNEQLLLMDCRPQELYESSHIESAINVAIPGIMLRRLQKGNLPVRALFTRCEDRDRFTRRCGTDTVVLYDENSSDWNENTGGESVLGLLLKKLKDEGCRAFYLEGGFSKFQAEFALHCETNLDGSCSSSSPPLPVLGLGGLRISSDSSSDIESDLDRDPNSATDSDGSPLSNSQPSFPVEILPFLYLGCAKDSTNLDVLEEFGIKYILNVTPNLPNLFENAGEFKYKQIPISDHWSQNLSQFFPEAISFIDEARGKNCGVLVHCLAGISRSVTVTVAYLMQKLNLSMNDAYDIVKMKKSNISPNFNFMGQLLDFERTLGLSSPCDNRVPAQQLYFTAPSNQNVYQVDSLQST

[5] = molecular target: Mu-type opioid receptor (Homo sapiens, UniProt P35372); test: SAR Analysis of Antagonists of the MOR Receptor using an Image-Based Assay - Set 3. [Related pubchem assays (depositor defined):AID1777, AID1785, AID1786, AID1966, AID2133, AID2136, AID2284, AID2285, AID2420]
Sequence of Mu-type opioid receptor (P35372 whole entry): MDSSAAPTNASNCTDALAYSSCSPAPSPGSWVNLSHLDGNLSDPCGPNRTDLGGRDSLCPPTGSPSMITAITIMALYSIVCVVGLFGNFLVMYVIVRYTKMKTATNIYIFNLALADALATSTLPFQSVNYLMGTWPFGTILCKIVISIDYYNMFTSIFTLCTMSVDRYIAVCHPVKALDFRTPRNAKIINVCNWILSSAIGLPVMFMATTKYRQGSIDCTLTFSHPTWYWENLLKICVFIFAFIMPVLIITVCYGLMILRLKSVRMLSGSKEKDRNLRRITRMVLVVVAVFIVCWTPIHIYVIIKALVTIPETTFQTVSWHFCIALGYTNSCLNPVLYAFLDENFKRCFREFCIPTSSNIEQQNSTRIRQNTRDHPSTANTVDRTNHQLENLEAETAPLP

[6] = molecular target: Delta-type opioid receptor (Homo sapiens, UniProt P41143); test: SAR Analysis of Antagonists of the DOR Receptor using an Image-Based Assay - Set 3. [Related pubchem assays (depositor defined):AID1777, AID1785];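 also: U2OS cells expressing DOR1 and beta-arrestin GFP stimulated with 100 nM SNC80; imaging of GFP-tagged beta-arrestin moving into spots after receptor activation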
Sequence of Delta-type opioid receptor (P41143 whole entry): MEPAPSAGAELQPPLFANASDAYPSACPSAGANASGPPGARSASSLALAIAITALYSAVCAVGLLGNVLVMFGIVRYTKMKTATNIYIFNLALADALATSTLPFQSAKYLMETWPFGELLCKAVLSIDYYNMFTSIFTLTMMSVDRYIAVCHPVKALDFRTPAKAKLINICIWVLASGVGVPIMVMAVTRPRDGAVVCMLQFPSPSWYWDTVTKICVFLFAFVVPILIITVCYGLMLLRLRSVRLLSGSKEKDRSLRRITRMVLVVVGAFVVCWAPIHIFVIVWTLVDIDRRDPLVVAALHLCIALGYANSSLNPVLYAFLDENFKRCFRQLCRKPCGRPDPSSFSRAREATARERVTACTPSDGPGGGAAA

[7] = molecular target: T2, Kappa-type opioid receptor (Homo sapiens, UniProt P41145); test: SAR analysis of small molecule antagonists of the kappa opioid receptor via a luminescent beta-arrestin assay - Set 3. [Related pubchem assays (depositor defined):AID1777, AID1778, AID1785, AID1786, AID1966, AID2133, AID2136, AID2285, AID2495]
T2 sequence (P41145 whole entry): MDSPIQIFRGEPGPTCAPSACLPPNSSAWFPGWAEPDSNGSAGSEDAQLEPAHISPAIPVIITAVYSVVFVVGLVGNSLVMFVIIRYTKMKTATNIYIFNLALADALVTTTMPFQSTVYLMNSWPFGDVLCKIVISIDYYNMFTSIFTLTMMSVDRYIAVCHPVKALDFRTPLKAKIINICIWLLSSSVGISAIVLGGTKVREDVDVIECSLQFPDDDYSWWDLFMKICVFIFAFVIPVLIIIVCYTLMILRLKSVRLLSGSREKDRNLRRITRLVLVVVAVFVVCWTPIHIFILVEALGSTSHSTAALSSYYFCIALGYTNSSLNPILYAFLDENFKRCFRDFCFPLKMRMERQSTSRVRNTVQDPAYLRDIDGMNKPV

[8] = molecular target: T2, Kappa-type opioid receptor; test: SAR analysis of Antagonists of the Kappa Opioid Receptor (KOR) using an Image-Based Assay - Set 3. [Related pubchem assays (depositor defined):AID1777, AID1785]

Sequence of Integrin alpha-4 (P13612 whole entry): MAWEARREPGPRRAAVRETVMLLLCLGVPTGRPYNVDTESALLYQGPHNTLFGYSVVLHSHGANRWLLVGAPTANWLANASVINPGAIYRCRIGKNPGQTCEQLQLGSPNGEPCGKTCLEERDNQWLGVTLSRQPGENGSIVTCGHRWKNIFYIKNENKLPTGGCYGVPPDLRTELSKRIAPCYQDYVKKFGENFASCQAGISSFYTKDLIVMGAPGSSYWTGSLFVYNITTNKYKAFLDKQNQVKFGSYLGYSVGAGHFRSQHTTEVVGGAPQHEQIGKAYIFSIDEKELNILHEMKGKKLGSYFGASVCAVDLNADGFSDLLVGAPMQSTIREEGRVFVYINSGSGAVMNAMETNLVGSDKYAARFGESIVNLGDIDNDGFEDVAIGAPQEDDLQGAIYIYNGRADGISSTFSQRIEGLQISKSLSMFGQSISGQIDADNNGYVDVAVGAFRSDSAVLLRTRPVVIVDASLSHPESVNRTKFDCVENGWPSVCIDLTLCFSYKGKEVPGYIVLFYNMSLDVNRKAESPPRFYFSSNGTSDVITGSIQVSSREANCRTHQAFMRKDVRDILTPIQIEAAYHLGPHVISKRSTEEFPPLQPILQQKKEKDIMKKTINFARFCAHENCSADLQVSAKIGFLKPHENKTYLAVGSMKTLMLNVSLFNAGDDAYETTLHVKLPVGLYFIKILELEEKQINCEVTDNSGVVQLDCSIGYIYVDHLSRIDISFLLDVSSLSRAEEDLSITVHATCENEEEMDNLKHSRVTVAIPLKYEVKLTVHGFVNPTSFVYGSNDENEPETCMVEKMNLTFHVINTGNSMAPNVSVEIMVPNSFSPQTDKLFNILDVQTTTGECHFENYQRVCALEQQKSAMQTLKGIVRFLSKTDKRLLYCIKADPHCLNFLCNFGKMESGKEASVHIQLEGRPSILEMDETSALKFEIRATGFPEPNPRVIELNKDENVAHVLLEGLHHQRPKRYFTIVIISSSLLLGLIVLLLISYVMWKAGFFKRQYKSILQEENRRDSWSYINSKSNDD

EC50 [1]: 0.334 µM (active)
Structure (SMILES): O=C1NC(=O)C2(N1)c1ccccc1-c1ccccc12

Structure (SMILES): Cc1ccc(CNC(=O)C(C)OC(=O)c2c(C)nn(Cc3ccccc3)c2Cl)cc1 (stereo not drawn)
EC50 [2]: > 50 µM (inactive)

Structure (SMILES): Cc1ccc(C(=O)NC2CCSc3ccccc32)cc1S(N)(=O)=O (stereo not drawn)
IC50 [3]: > 100 µM (inactive)
IC50 [4]: > 100 µM (inactive)

IC50 [5]: 8.46 µM (active)
IC50 [6]: > 32 µM (inactive)
IC50 [7]: 19.4 µM (inactive)
IC50 [8]: 4.82 µM (active)
Structure (SMILES): CCN(CCNC(=O)c1ccc(CNS(=O)(=O)c2ccc(Br)cc2)cc1)Cc1ccccc1
